Test results reported in PubChem BioAssay AID1963442 (Molecular Pharmacology Branch, DTP, NCI, 2024).
pIC50: −log10 of the molar value. Several values for one entry are separate records, joined by “and”; a condition that tells them apart may be missing. Equal values may be shown once.

Test system: MPNST complex spheroid with HUVEC/MSC, growth, % test/control
Assay: Anticancer human tumor MPNST cell line growth inhibition [Asc];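 also: compounds left on spheroids for seven days before reading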
Conditions: for viability, T/C: stronger effect = lower value
Experimental: Multicellular complex tumor spheroid response to apoptosis pathway targeting inhibitors Alrizomadlin, Pelcitoclax, and Dasminapant in combination with a variety of drugs and investigational agents in selected tumor cell lines
The MDM2 inhibitor alrizomadlin, the Bcl-2/Bcl-xL inhibitor pelcitoclax, and the IAPs inhibitor dasminapant were evaluated both individually and in combination with standard of care and investigational anticancer small molecules within a complex spheroid model of solid tumors. . Complex spheroids include a stromal component modeled by human endothelial cells (HUVEC) and fibroblasts modeled by human mesenchymal stem cells (MSCs). The concentration ranges selected for each drug and investigational agent were based upon clinically achievable concentrations if the clinical Cmax of the agent was known.
Compounds. The drugs and investigational agents: alrizomadlin (APG-115; NSC831270), pelcitoclax (APG-1252; NSC835773), dasminapant (APG-1387;NSC834197), TAK-243 (NSC785004), copanlisib (NSC809693), olaparib (NSC753686), talazoparib (NSC767125), cobimetinib (NSC 768068), eltanexor (KPT-8602, NSC 794443), abemaciclib (NSC 768073), sotorasib (NSC818433), adagrasib (NSC 831453), MRTX-1133 (NSC 836407), Iadademestat (ORY1001, NSC 806812), and RMC-4630 (NSC839698), were obtained from the NCI Developmental Therapeutics Program Chemical Repository. The FDA-approved anticancer drug set is available from the Developmental Therapeutics Program at https://dtp.cancer.gov/organization/dscb/obtaining/available plates.htm. […] The stock solutions were prepared in dimethyl sulfoxide (DMSO, Sigma-Aldrich, St. Louis, MO, cat. D2650) at 800-fold the tested concentration and stored at -70 degrees C prior to their use. All drugs and investigational agents were tested over a range starting from a high concentration at or near the clinical Cmax and decreasing in half-log increments. If the clinical Cmax for an agent had not been determined, the highest concentration tested was 10 microM.
The patient-derived cancer (PDC) cell lines include five colon adenocarcinomas: 186277-243-T-J2-PDC, 616215-338-R-J1-PDC, 439559-082-T-J2-PDC, 463943-066-T-J2-PDC, and 519858-162-T-J1-PDC; three pancreatic carcinomas: 323965-272-R-J2-PDC, 521955-158-R6-J3-PDC, and 521955-158-R2-J5-PDC; two uterine sarcomas: 327498-152-R-J2-PDC and 993429-296-R-J1-PDC; two rhabdomyosarcomas: 755483-174-R-J1-PDC and 772245-204-R-J1-PDC; two soft tissue sarcomas: 126254-015-R-J1-PDC and 494315-158-R-J1-PDC; two malignant fibrous histiocytomas: 317291-083-R-J1-PDC and 596521-263-R-J1-PDC; two breast carcinomas: 171881-019-R-J1-PDC and 885512-296-R-J2-PDC; and one ovarian carcinoma: 6556581-035-R-J-PDC were obtained from the NCI PDMR, (https://pdmr.cancer.gov). The established cell lines HSSY-2 synovial sarcoma (RRID:CVCL 8719), SYO-1 synovial sarcoma (RRID:CVCL_7146), MPNST malignant peripheral neural sheath tumor were obtained from the Sloan Kettering Institute. The following established cell lines were purchased from the American Type Culture Collection (ATCC, Manassas, VA), Sor the received from the NCI repository:, PANC-1 pancreatic carcinoma (CRL-1469, RRID:CVCL_0480), OVCAR-5 ovarian carcinoma (RRID:CVCL_1628), OVCAR-8 ovarian carcinoma (RRID:CVCL_1629), , MCF-7 breast carcinoma (CRL-12584, RRID:CVCL_0031), MDA-MB-231 breast carcinoma (CRL-12532, RRID:CVCL_0062), NCI-H1876 small cell lung carcinoma (CRL-5902, RRID:CVCL_1503), NCI-H510A small cell lung carcinoma (HTB-184, RRID:CVCL_1565), NCI-H1417 (CRL-5869, RRID:CVCL_1469), and NCI-H196 small cell lung carcinoma (CRL-5823, RRID:CVCL_1509). Dr. Peter Houghton (Greehey Children's Cancer Research Institute, University of Texas Health Science Center, San Antonio, TX) provided Rh-18 rhabdomyosarcoma (RRID:CVCL_1659). Pooled donor human umbilical vein endothelial cells (HUVEC, Lonza, cat. CC-2519) and human mesenchymal stem cells (hMSC, Lonza, cat. PT-2501) were purchased from Lonza (Walkersville, MD).
Cell Culture. […]

[1] = compound alone, run of 10/11/2022

Row | Structure (SMILES) | viability, T/C (compound 0.0316 µM) | viability, T/C (compound 0.1 µM) | viability, T/C (compound 0.316 µM) | viability, T/C (compound 1 µM) | pIC50 (curve of compound) | further results
1 | C#Cc1c(F)ccc2cc(O)cc(-c3ncc4c(N5CC6CCC(C5)N6)nc(OCC56CCCN5CC(F)C6)nc4c3F)c12 (centres undefined) | 76.6% and 93.8% and 88.8% | 87% and 113% and 69.2% | 74.9% and 107% and 83.5% | 61.2% and 94.7% and 70.7% | < 5.00 | viability, T/C (compound 3.16 µM): 88% and 93.3% and 87.2%; viability, T/C (compound 10 µM): 50% and 97.8% and 110%
2 | C=C(F)C(=O)N1CCN(c2nc(OCC3CCCN3C)nc3c2CCN(c2cccc4cccc(Cl)c24)C3)CC1CC#N (centres undefined) | 65.6% and 93.2% and 99.3% | 75% and 68.3% and 86.5% | 90.8% and 73% and 75.3% | 85% and 68.2% and 94.8% | 5.52 and < 5.00 | viability, T/C (compound 3.16 µM): 48.5% and 60.2% and 82.2%
3 | C=CC(=O)N1CCN(c2nc(=O)n(-c3c(C)ccnc3C(C)C)c3nc(-c4c(O)cccc4F)c(F)cc23)C(C)C1 (centres undefined) | 99.3% and 91.7% and 80.4% | 81% and 76.5% and 90.9% | 99% and 90.2% and 92.3% | 87.4% and 78.7% and 108% | < 5.00 | viability, T/C (compound 3.16 µM): 104% and 121% (2×); viability, T/C (compound 10 µM): 101% and 143% and 119%
4 | CCN1C(C(=O)NC23CCC(C(=O)O)(CC2)CC3)C(c2cccc(Cl)c2F)C2(C(=O)Nc3cc(Cl)ccc32)C12CCCCC2 (centres undefined) | – | – | – | – | 5.74 and < 5.52 | viability, T/C (compound 0.00949 µM): 86.6% and 74.5%; pIC50 [1]: < 5.52
5 | CCN1CCN(Cc2ccc(Nc3ncc(F)c(-c4cc(F)c5nc(C)n(C(C)C)c5c4)n3)nc2)CC1 | 92.8% and 78.2% and 78.8% | 70.1% and 54% and 60.7% | 84.9% and 63% and 78.3% | 92.1% and 65.1% and 69% | < 6.00 | viability, T/C (compound 0.00316 µM): 73% and 74.2% and 85.2%; viability, T/C (compound 0.01 µM): 91.6% and 72.8% and 69.6%
6 | CNC(C)C(=O)NC1CN(S(=O)(=O)c2cccc(S(=O)(=O)N3CCC4CCC(C(=O)NC(c5ccccc5)c5ccccc5)N4C(=O)C(NC(=O)C(C)NC)C3)c2)CCC2CCC(C(=O)NC(c3ccccc3)c3ccccc3)N2C1=O (centres undefined) | – | – | – | – | < 6.00 | –
7 | COc1c(OCCCN2CCOCC2)ccc2c3n(c(=NC(=O)c4cnc(N)nc4)nc12)CCN3 | 70.7% and 52.5% and 38.8% | 39.8% and 39.5% and 13.7% | 31.4% and 24.9% and 9.45% | 24% and 18.9% and 5.21% | 7.16 and 7.31 and 7.94 | viability, T/C (compound 0.00316 µM): 84.8% and 70.3% and 54.3%; viability, T/C (compound 0.01 µM): 97% and 81% and 50.6%
8 | Cc1c(S(C)(=O)=O)c(-c2cc(F)cc(N3CCN(c4ccc(NS(=O)(=O)c5ccc(NC(CCN6CCC(C(=O)OCCCP(=O)(O)O)CC6)CSc6ccccc6)c(S(=O)(=O)C(F)(F)F)c5)cc4)CC3)c2)c(-c2ccc(Cl)cc2)n1C(C)C (centres undefined) | – | – | – | – | – | pIC50 [1]: < 5.00
9 | Cc1nc(N2CCC3(CC2)COC(C)C3N)c(CO)nc1Sc1ccnc(N)c1Cl (centres undefined) | – | – | – | – | 6.02 and < 5.52 | viability, T/C (compound 0.00949 µM): 64.8% and 95.2% and 81.6%; viability, T/C (compound 0.03 µM): 69.3% and 115% and 93.2%; viability, T/C (compound 0.0949 µM): 81% and 125% and 89.5%; viability, T/C (compound 0.3 µM): 48.4% and 109% and 92%; viability, T/C (compound 0.949 µM): 55.7% and 115% and 93.5%; viability, T/C (compound 3 µM): 18.5% and 86.6% and 80.5%
10 | Cn1ncnc1[C@H]1c2n[nH]c(=O)c3cc(F)cc(c23)N[C@@H]1c1ccc(F)cc1 | 70% and 42.6% and 64.6% | 75.9% and 56.8% and 44% | – | – | < 7.00 and 7.51 | viability, T/C (compound 0.000316 µM): 96.5% and 77% and 100%; viability, T/C (compound 0.001 µM): 85.1% and 66.4% and 78.8%; viability, T/C (compound 0.00316 µM): 81.7% and 67.3% and 52.8%; viability, T/C (compound 0.01 µM): 80.5% and 61.2% and 65.7%
11 | NC(=O)C(=Cn1cnc(-c2cc(C(F)(F)F)cc(C(F)(F)F)c2)n1)c1cncnc1 | – | – | – | – | – | viability, T/C (compound 0.000949 µM): 66.2% and 56.3% and 21.6%; viability, T/C (compound 0.003 µM): 90% and 89% and 18%; viability, T/C (compound 0.00949 µM): 81.3% and 73.5% and 18.6%; viability, T/C (compound 0.03 µM): 67.2% and 38.9% and 20.1%; viability, T/C (compound 0.0949 µM): 61.8% and 57.6% and 17.8%; viability, T/C (compound 0.3 µM): 53.9% and 40.3% and 22.3%
